Measured values from patent US8614201B2 (Janssen Pharmaceutica NV, priority 2009, dated 2013).

Molecular target: Human TRPA1 (Homo sapiens, UniProt O75762)
Test: Alternative TRPA1 Ca2+ fluorometry assay (hTRPA1/TREx-HEK293 cells, Fluo-4, FDSS 6000)
Format: cell-based
Parameters: expressed in transfected cells
Details: Fluo-4-AM, agonist 6,11-dihydro-5H-dibenzo[b,e]azepine-10-carboxylic acid methyl ester 25 nM, procedure used for Examples 184, 190 to 192, 194 to 316
Method: In alternative embodiments, the assay was performed using the following procedure for Examples 184, 190 to 192, and 194 to 316:
The human TRPA1 gene was cloned into the pT-Rex-Dest30 inducible vector and stably transfected in T-Rex™-293 cells (Invitrogen, Merelbeke, Belgium). This tetracycline inducible hTRPA1 expression system was used in order to prevent CA^2+ overload in the cultured cells due to sustained TRPA1 expression. hTRPA1/TREx-HEK293 cells (referred to as jTRPA1 cells in the following text) were maintained under standard sterile cell culture conditions. The culture medium for the jTRPA1-HEK cells was DMEN (Gibco BRL, Invitrogen, Merelbeke, Belgium) supplemented with 5 g/l gengticin (Gibco), 5 mL/l blasticidin (Invitorgen), 14.6 g/l L-Glutamine (200 mMl; Gibco), 5 g/l penicillin/streptomycin (5.10-6 IU/I, Gibco), 5.5 g/l pyruvic acid (Gibco) and 10% foetal calf serum (Hyclone, Logan Utah, USA).
For Ca^2+ fluorometry experiments, hTRPA1-HEK cells were resuspended in HBSS seeding medium: HBSS (with CaCl2 and MgCl2: Gibco) supplemented with 14.6 g/l L-Glutamine (200 mM; Gibco), 5 g/l penicillin/streptomycin (5.10-6 IU/l. Gibco), 5.5 g/l pyruvic acid (Gibco) and 10% foetal calf serum (heat inactivated for 30 minutes at 56° C.; Hyclone, Logan Utah, USA). The cells were seeded in poly-D-lysine-coated 384-well round bottom polypropylene plates (Costar Corning, Data Packaging, Cambridge Mass., USA) at 12000 cells/well. Fifty ng/ml tetracycline was added to induce the hTRPA1 expression 24 h before the experiment.
The cells were loaded with 5 mg/l Fluo-4-AM (Molecular Probes, Invitorgen, Merelbeke, Belgium) dissolved in HBSS seeding medium supplemented with 0.7 g/l Probenecid (Sigma) and incubated for 1 h at 37° C. and subsequently at 20° C. for 1 to 2 h. The fluorescence was measured in the FDSS 6000 imaging based plate reader (Hamamutsu Photonics K.K., Hamamutsu City, Japan). The excitation wavelength was 488 nm and the emission wavelength 540 nm. After a control period of 12 seconds the inventive compounds were added and the Ca^2+ signal was measured within 14 minutes after application. Finally, a TRPA1 agonist, 6,11-dihydro-5H-dibenzo[b,e]azepine-10-carboxylic acid methyl ester, was added at a final concentration of 25 nM. The emission ratio was calculated by dividing the emission signal (Em540) by the first EM540 signal of the control period to compensate for the background fluorescence. […] For intracellular Ca^2+ measurements, a compound stock solution (10 to 100 mM) was further diluted in DMSO in order to obtain a final 1% DMSO concentration in the extracellular solution.

Sequence of Human TRPA1 (O75762 whole entry): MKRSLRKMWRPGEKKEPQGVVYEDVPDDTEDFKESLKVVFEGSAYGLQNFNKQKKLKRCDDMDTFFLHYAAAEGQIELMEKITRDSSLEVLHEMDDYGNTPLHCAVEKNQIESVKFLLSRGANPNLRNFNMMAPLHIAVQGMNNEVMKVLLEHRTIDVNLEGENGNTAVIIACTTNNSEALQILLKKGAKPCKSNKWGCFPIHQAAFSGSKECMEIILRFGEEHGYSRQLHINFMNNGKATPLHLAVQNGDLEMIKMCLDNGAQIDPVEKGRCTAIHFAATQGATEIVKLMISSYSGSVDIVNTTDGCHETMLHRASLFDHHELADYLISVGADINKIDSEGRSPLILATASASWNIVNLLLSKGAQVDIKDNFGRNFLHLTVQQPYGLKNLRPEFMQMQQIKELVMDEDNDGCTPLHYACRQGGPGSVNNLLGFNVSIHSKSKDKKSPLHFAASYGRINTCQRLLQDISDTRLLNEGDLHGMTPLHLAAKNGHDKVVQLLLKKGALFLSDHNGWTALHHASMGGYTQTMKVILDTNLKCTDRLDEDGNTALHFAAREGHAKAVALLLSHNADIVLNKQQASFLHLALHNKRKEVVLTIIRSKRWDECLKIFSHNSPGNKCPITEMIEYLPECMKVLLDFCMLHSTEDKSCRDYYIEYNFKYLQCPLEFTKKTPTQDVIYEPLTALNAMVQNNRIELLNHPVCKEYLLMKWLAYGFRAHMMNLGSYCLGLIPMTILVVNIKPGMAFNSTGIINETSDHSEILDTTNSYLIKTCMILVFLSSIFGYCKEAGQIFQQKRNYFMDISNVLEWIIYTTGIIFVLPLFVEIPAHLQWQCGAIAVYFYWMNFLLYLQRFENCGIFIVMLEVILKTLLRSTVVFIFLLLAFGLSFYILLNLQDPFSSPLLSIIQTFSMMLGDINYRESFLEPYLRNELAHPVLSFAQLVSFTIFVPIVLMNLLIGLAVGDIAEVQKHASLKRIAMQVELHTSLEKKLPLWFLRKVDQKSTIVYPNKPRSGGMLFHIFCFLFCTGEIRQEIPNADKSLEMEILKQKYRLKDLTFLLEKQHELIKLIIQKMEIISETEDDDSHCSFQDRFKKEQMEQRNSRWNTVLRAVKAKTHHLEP

| Compound | IC50 [nM] |
| --- | --- |
| COc1ccc(F)cc1-c1cc(CNC(=O)[C@@H]2CCCN2S(=O)(=O)c2ccc(F)cc2)nc(N2CCN(c3ccccc3F)CC2)n1 [Example 230, 1-(4-Fluoro-benzenesulfonyl)-pyrrolidine-2S-carboxylic acid {6-(5-fluoro-2-methoxy-phenyl)-2-[4-(2-fluoro-phenyl)-piperazin-1-yl]-pyrimidin-4-ylmethyl}-amide] | 1290 |
| Cc1ccc(C)c(-c2cc(CNC(=O)[C@@H]3CCCN3S(=O)(=O)c3ccc(F)cc3)nc(N3CCN(c4ccccc4F)CC3)n2)c1 [Example 232, 1-(4-Fluoro-benzenesulfonyl)-pyrrolidine-2S-carboxylic acid {6-(2,5-dimethyl-phenyl)-2-[4-(2-fluoro-phenyl)-piperazin-1-yl]-pyrimidin-4-ylmethyl}-amide] | 1120 |
| O=C(NCc1cc(-c2ccc(F)cc2F)nc(N2CCN(c3ccccc3F)CC2)n1)[C@@H]1CCCN1S(=O)(=O)c1ccc(F)cc1 [Example 233, 1-(4-Fluoro-benzenesulfonyl)-pyrrolidine-2S-carboxylic acid {6-(2,4-difluoro-phenyl)-2-[4-(2-fluoro-phenyl)-piperazin-1-yl]-pyrimidin-4-ylmethyl}-amide] | ~372 |
| O=C(NCc1cc(-c2cccc(OC(F)(F)F)c2)nc(N2CCN(c3ccccc3F)CC2)n1)[C@@H]1CCCN1S(=O)(=O)c1ccc(F)cc1 [Example 234, 1-(4-Fluoro-benzenesulfonyl)-pyrrolidine-2S-carboxylic acid [2-[4-(2-fluoro-phenyl)-piperazin-1-yl]-6-(3-trifluoromethoxy-phenyl)-pyrimidin-4-ylmethyl]-amide] | > 10000 |
| N#Cc1cccc(-c2cc(CNC(=O)[C@@H]3CCCN3S(=O)(=O)c3ccc(F)cc3)nc(N3CCN(c4ccccc4F)CC3)n2)c1 [Example 235, 1-(4-Fluoro-benzenesulfonyl)-pyrrolidine-2S-carboxylic acid {6-(3-cyano-phenyl)-2-[4-(2-fluoro-phenyl)-piperazin-1-yl]-pyrimidin-4-ylmethyl}-amide] | 5890 |
| Cc1cc(C)cc(-c2cc(CNC(=O)[C@@H]3CCCN3S(=O)(=O)c3ccc(F)cc3)nc(N3CCN(c4ccccc4F)CC3)n2)c1 [Example 236, 1-(4-Fluoro-benzenesulfonyl)-pyrrolidine-2S-carboxylic acid {6-(3,5-dimethyl-phenyl)-2-[4-(2-fluoro-phenyl)-piperazin-1-yl]-pyrimidin-4-ylmethyl}-amide] | > 10000 |
| CN(C)c1cccc(-c2cc(CNC(=O)[C@@H]3CCCN3S(=O)(=O)c3ccc(F)cc3)nc(N3CCN(c4ccccc4F)CC3)n2)c1 [Example 237, 1-(4-Fluoro-benzenesulfonyl)-pyrrolidine-2S-carboxylic acid {6-(3-dimethylamino-phenyl)-2-[4-(2-fluoro-phenyl)-piperazin-1-yl]-pyrimidin-4-ylmethyl}-amide] | > 10000 |
| O=C(NCc1cc(-c2ccc3c(c2)OCO3)nc(N2CCN(c3ccccc3F)CC2)n1)[C@@H]1CCCN1S(=O)(=O)c1ccc(F)cc1 [Example 238, 1-(4-Fluoro-benzenesulfonyl)-pyrrolidine-2S-carboxylic acid {6-benzo[1,3]dioxol-5-yl-2-[4-(2-fluoro-phenyl)-piperazin-1-yl]-pyrimidin-4-ylmethyl}-amide] | 1290 |
| O=C(NCc1cc(-c2cccc(Cl)c2)nc(N2CCN(c3ccccc3F)CC2)n1)[C@@H]1CCCN1S(=O)(=O)c1ccc(F)cc1 [Example 239, 1-(4-Fluoro-benzenesulfonyl)-pyrrolidine-2S-carboxylic acid {6-(3-chloro-phenyl)-2-[4-(2-fluoro-phenyl)-piperazin-1-yl]-pyrimidin-4-ylmethyl}-amide] | 5010 |
| Cc1cccc(C)c1-c1cc(CNC(=O)[C@@H]2CCCN2S(=O)(=O)c2ccc(F)cc2)nc(N2CCN(c3ccccc3F)CC2)n1 [Example 240, 1-(4-Fluoro-benzenesulfonyl)-pyrrolidine-2S-carboxylic acid {6-(2,6-dimethyl-phenyl)-2-[4-(2-fluoro-phenyl)-piperazin-1-yl]-pyrimidin-4-ylmethyl}-amide] | ~933 |
| O=C(NCc1cc(-c2ccc(Cl)cc2)nc(N2CCN(c3ccccc3F)CC2)n1)[C@@H]1CCCN1S(=O)(=O)c1ccc(F)cc1 [Example 241, 1-(4-Fluoro-benzenesulfonyl)-pyrrolidine-2-carboxylic acid {6-(4-chloro-phenyl)-2-[4-(2-fluoro-phenyl)-piperazin-1-yl]-pyrimidin-4-ylmethyl}-amide] | 417 |
| O=C(NCc1cc(-c2ccccc2Cl)nc(N2CCN(c3ccccc3F)CC2)n1)[C@@H]1CCCN1S(=O)(=O)c1ccc(F)cc1 [Example 242, 1-(4-Fluoro-benzenesulfonyl)-pyrrolidine-2-carboxylic acid {6-(2-chloro-phenyl)-2-[4-(2-fluoro-phenyl)-piperazin-1-yl]-pyrimidin-4-ylmethyl}-amide] | ~1100 |
| O=C(NCc1cc(-c2cccc(C(F)(F)F)c2)nc(N2CCN(c3ccccc3F)CC2)n1)[C@@H]1CCCN1S(=O)(=O)c1ccc(F)cc1 [Example 243, 1-(4-Fluoro-benzenesulfonyl)-pyrrolidine-2S-carboxylic acid [2-[4-(2-fluoro-phenyl)-piperazin-1-yl]-6-(3-trifluoromethyl-phenyl)-pyrimidin-4-ylmethyl]-amide] | 3800 |
| O=C(NCc1cc(-c2ccc(F)c(Cl)c2)nc(N2CCN(c3ccccc3F)CC2)n1)[C@@H]1CCCN1S(=O)(=O)c1ccc(F)cc1 [Example 244, 1-(4-Fluoro-benzenesulfonyl)-pyrrolidine-2-carboxylic acid {6-(3-chloro-4-fluoro-phenyl)-2-[4-(2-fluoro-phenyl)-piperazin-1-yl]-pyrimidin-4-ylmethyl}-amide] | > 10000 |
| O=C(NCc1cc(-c2ccccc2F)nc(N2CCN(c3ccccc3F)CC2)n1)[C@@H]1CCCN1S(=O)(=O)c1ccc(F)cc1 [Example 245, 1-(4-Fluoro-benzenesulfonyl)-pyrrolidine-2S-carboxylic acid {6-(2-fluoro-phenyl)-2-[4-(2-fluoro-phenyl)-piperazin-1-yl]-pyrimidin-4-ylmethyl}-amide] | 2460 |
| O=C(NCc1cc(-c2cccc(F)c2)nc(N2CCN(c3ccccc3F)CC2)n1)[C@@H]1CCCN1S(=O)(=O)c1ccc(F)cc1 [Example 246, 1-(4-Fluoro-benzenesulfonyl)-pyrrolidine-2S-carboxylic acid {6-(3-fluoro-phenyl)-2-[4-(2-fluoro-phenyl)-piperazin-1-yl]-pyrimidin-4-ylmethyl}-amide] | 2000 |
| Cc1ccccc1-c1cc(CNC(=O)[C@@H]2CCCN2S(=O)(=O)c2ccc(F)cc2)nc(N2CCN(c3ccccc3F)CC2)n1 [Example 247, 1-(4-Fluoro-benzenesulfonyl)-pyrrolidine-2S-carboxylic acid {2-[4-(2-fluoro-phenyl)-piperazin-1-yl]-6-o-tolyl-pyrimidin-4-ylmethyl}-amide] | ~1440 |
| O=C(NCc1cc(-c2ccc(Cl)c(Cl)c2)nc(N2CCN(c3ccccc3F)CC2)n1)[C@@H]1CCCN1S(=O)(=O)c1ccc(F)cc1 [Example 248, 1-(4-Fluoro-benzenesulfonyl)-pyrrolidine-2S-carboxylic acid {6-(3,4-dichloro-phenyl)-2-[4-(2-fluoro-phenyl)-piperazin-1-yl]-pyrimidin-4-ylmethyl}-amide] | ~676 |
| O=C(NCc1cc(-c2cc(F)cc(F)c2)nc(N2CCN(c3ccccc3F)CC2)n1)[C@@H]1CCCN1S(=O)(=O)c1ccc(F)cc1 [Example 249, 1-(4-Fluoro-benzenesulfonyl)-pyrrolidine-2S-carboxylic acid {6-(3,5-difluoro-phenyl)-2-[4-(2-fluoro-phenyl)-piperazin-1-yl]-pyrimidin-4-ylmethyl}-amide] | 1590 |
| O=C(NCc1cc(-c2ccc(Cl)cc2Cl)nc(N2CCN(c3ccccc3F)CC2)n1)[C@@H]1CCCN1S(=O)(=O)c1ccc(F)cc1 [Example 250, 1-(4-Fluoro-benzenesulfonyl)-pyrrolidine-2S-carboxylic acid {6-(2,4-dichloro-phenyl)-2-[4-(2-fluoro-phenyl)-piperazin-1-yl]-pyrimidin-4-ylmethyl}-amide] | 851 |
